Assay results from ChEMBL document CHEMBL1201862, “PubChem BioAssay data set” (2004).
Active and inactive are the calls of the source.

Key:
[1] = viability loss in HepG2 hepatoma cells – cell-based, ATP luminescence, cherry-pick, activator set 2, cytotoxicity control, dose response (AID 1053143); assay type: functional
[2] = target: T1, Long-chain-fatty-acid--AMP ligase FadD28 (Mycobacterium tuberculosis, UniProt P9WQ59); test: Fluorescence polarization aasay to screen for inhibitors that compete for the binding of FadD28 to a bisubstrate Measured in Biochemical System Using Plate Reader - 2147-01_Inhibitor_Dose_CherryPick_Activity.; assay type: functional, Mycobacterium tuberculosis H37Rv
T1 sequence (P9WQ59 whole entry): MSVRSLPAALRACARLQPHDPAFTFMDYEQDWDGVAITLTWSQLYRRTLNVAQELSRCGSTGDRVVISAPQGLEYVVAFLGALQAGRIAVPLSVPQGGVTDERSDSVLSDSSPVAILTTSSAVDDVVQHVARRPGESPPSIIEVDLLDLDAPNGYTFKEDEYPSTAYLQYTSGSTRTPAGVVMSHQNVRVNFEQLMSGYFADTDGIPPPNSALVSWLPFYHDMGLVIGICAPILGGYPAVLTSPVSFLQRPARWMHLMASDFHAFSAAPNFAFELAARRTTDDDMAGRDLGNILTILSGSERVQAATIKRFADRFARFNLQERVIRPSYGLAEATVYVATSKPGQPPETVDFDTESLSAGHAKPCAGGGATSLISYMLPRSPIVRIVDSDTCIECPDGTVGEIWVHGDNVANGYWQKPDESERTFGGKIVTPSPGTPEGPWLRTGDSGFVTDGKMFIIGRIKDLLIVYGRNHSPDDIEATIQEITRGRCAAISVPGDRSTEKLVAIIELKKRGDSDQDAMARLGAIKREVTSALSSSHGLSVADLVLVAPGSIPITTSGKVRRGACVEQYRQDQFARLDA

[3] = viability loss in THP-1 monocytes – THP-1 cells, cytotoxicity control for Vif-APOBEC3G degradation inhibitor project, dose response (AID 1117359); assay type: functional; settings: THP-1
[4] = OVCAR-3 cell viability loss – plate reader, dry powder samples, PAX8 inhibitor project, dose response (AID 743044); assay type: functional, cell-based
Paired box protein Pax-8 = Paired box protein Pax-8 (Homo sapiens, UniProt Q06710); test: PAX8 transcriptional activity inhibition in RMG-I – RMG-I cells, luciferase, cherry-pick, dose response (AID 687027); assay type: functional, cell-based;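 further: luciferase reporter driven by Pax8 target thyroperoxidase promoter measured by SteadyGlo luminescence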
Chain of Paired box protein Pax-8 (Q06710 whole entry): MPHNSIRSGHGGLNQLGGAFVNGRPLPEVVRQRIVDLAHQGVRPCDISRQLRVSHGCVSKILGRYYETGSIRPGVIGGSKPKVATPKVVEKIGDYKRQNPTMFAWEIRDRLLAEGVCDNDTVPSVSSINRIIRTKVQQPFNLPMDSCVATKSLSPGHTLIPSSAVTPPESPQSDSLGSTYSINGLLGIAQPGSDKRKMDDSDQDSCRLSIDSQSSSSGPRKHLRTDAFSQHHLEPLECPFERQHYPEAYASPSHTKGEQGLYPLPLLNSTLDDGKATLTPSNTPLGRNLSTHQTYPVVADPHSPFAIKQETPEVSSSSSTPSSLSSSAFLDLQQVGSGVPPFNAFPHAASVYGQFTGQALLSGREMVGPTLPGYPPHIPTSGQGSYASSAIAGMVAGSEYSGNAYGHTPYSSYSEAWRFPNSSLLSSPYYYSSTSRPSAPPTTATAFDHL

[5] = OVCAR8 cell viability loss – plate reader, dry powder samples, PAX8 project, dose response (AID 743197); assay type: functional, cell-based; settings: OVCAR-8
[6] = toxicity toward HepG2 liver cells – cell-based, plate reader, cherry-pick, antagonist series, cytotoxicity control, dose response (AID 743416); assay type: functional
[7] = toxicity to human hepatoma HepG2 cells – cell-based, cherry-picked samples, cytotoxicity control, dose response (AID 1159577); assay type: functional
[8] = P. falciparum Dd2 growth inhibitors, dose response, SYBR Green, cherry-picked samples (AID 1159567); assay type: functional, cell-based
[9] = blockers of bursicon-stimulated LGR2 cAMP reporter – cell-based, HEK293, CRE-luciferase reporter, cherry pick, set 2, dose response (AID 743343); assay type: functional;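 further: transfected cells were stimulated with diluted bursicon conditioned medium after compound addition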
[10] = A549 cell cytotoxicity, dose response, cytotoxicity control, plate reader, cherry-pick, antagonist series (AID 743412); assay type: functional, cell-based
[11] = blockade of melanocortin 4 receptor signaling – cell-based, plate reader, cherry pick, counter-screen for LGR2 antagonist project, dose response (AID 743444); assay type: functional;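 further: transfected HEK 293 cells stimulated with alpha-MSH peptide; potency of inhibitors of the alpha-MSH evoked signal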
Coagulation factor XII = target: T2, Coagulation factor XII (Homo sapiens, UniProt P00748); assay type: functional;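 further: activated factor XIIa alpha cleaving a fluorogenic AMC peptide substrate; inhibitor potency from loss of enzyme activity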
T2 sequence (P00748 whole entry): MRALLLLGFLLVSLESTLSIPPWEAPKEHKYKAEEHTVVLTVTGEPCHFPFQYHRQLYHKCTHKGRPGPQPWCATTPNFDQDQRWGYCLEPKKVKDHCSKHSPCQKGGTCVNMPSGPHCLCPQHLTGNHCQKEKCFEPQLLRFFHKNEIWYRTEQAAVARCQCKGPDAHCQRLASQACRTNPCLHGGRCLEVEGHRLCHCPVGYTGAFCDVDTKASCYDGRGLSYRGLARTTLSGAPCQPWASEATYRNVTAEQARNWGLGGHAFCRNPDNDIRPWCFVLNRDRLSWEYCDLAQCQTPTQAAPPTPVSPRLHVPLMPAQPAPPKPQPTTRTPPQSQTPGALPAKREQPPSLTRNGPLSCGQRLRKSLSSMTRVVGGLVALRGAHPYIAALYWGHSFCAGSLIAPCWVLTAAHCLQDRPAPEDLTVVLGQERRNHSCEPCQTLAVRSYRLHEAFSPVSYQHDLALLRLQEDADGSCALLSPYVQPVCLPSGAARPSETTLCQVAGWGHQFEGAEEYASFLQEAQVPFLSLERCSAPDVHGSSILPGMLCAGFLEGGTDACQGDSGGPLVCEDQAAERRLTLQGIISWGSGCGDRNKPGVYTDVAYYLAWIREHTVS

[12] = toxicity to human HepG2 hepatoma cells – cell-based, plate reader, dry powder samples, cytotoxicity control, dose response (AID 1159569); assay type: functional;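 further: inhibitor potency with signal falling toward the positive control level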
[13] = growth inhibition of yeast DHODH-expressing 3D7 parasites – SYBR Green, dry powder samples, dose response (AID 1159570); assay type: functional, cell-based;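 further: parasite growth measured after 72 hours of compound exposure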
[14] = Dd2 malaria parasite growth inhibition potency – SYBR Green, dry powder samples, dose response (AID 1159566); assay type: functional, cell-based;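 further: potency for growth inhibition with lower SYBR green DNA signal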
[15] = growth inhibition of PfATP4-mutant resistant parasites – NITD609-resistant line, SYBR Green, dry powder, dose response (AID 1159571); assay type: functional, cell-based;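 further: parasites synchronized at ring stage by sorbitol before testing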

SMILES: Cn1/c(=N\C(=O)c2ccco2)sc2cccc(F)c21
- AC50 [1]: 25.3 µM (active)

SMILES: COCCn1c(C)cc(/C=N/NC(=O)c2cc3ccccc3cc2O)c1C
- AC50 [2]: 17.4 µM (active)

SMILES: COc1cccc(-c2ncc3ccccc3c2CO)c1
- AC50 [2]: 38 µM (active)

SMILES: O=C1CC2=CC=CC(=O)C(=O)C2=C(O)O1
- CC50 [3]: > 40 µM (active)

SMILES: C[C@@H]1CN([C@H](C)CO)C(=O)c2cc(NC(=O)Nc3ccc(C(F)(F)F)cc3)ccc2O[C@@H](C)CCCCO[C@@H]1CN(C)C(=O)c1ccccc1
- AC50 [4]: 7.17 µM (active)
- AC50 (Paired box protein Pax-8): 5.42 µM (active)
- AC50 [5]: > 70 µM (inactive)

SMILES: CCCCCCSC1=C(C#N)C(=O)NC2(CCCCC2)S1
- AC50 [2]: > 100 µM (inactive)

SMILES: N#Cc1cccc(-c2ccc([C@@H]3[C@H](CO)N4CCCCN(C(=O)Nc5cccc(F)c5)C[C@@H]34)cc2)c1
- AC50 [6]: > 24 µM (inactive)
- AC50 [7]: 7.5 µM (active)
- AC50 [8]: 2.18 µM (active)
- AC50 [9]: 40.6 µM (active)
- AC50 [10]: 16.7 µM (active)
- AC50 [11]: 47.2 µM (active)

SMILES: COc1ccc(OC)c(NC(=O)CC2C(=O)NCCN2C(=O)Nc2cccc(Cl)c2)c1 (stereo not drawn)
- IC50 (Coagulation factor XII): > 50 µM (inactive)
- CC50 [3]: > 40 µM (active)

SMILES: C[C@H](CO)N1C[C@H](C)[C@@H](CN(C)C(=O)Nc2ccc3c(c2)OCO3)Oc2ccc(NC(=O)Nc3ccc(C(F)(F)F)cc3)cc2CC1=O
- AC50 [12]: > 100 µM (inactive)
- AC50 [13]: 0.406 µM (active)
- AC50 [8]: 0.748 µM (active)
- AC50 [14]: 0.276 µM (active)
- AC50 [15]: 0.238 µM (active)

SMILES: COc1ccc(C#Cc2ccc3c(c2)[C@H]2[C@H](CCN2Cc2nccs2)[C@H](CO)N3)cc1
- AC50 [12]: 59.9 µM (active)
- AC50 [13]: 2.95 µM (active)
- AC50 [8]: 2.09 µM (active)
- AC50 [14]: 1.76 µM (active)
- AC50 [15]: 1.87 µM (active)

SMILES: C[C@@H]1CN([C@@H](C)CO)S(=O)(=O)c2ccc(C#Cc3ccccc3)cc2O[C@H]1CN(C)C(=O)C1CC1
- AC50 [7]: > 39 µM (inactive)
- AC50 [8]: 4.38 µM (active)
